Measurements: paper PMC6155239, “Targeting PFKFB3 radiosensitizes cancer cells and suppresses homologous recombination” (Nature Communications, 2018)

System: U2OS cells
Assay: IR-induced PFKFB3/RRM2 foci co-localization
Assay type: cell-based
Details: pre-treatment prior to IR 6 Gy
Protocol: Cells were grown on sterilized coverslips and fixed with 4% paraformaldehyde (PFA) (Santa Cruz) and 2% sucrose (Sigma Aldrich) for 15 min at room temperature. They were then permeabilized with 0.2% NP-40 (Thermo Scientific) for 10 min at room temperature followed by 30 min of blocking in blocking buffer (2 or 3% BSA, 5% glycerol, 0.1% Tween 20 (Sigma Aldrich)). Coverslips were subsequently incubated for 1, 2, or 24 h in primary antibody and 40 min in secondary antibody diluted in blocking buffer, DNA was stained with DAPI for 10 min. The coverslips were mounted with Prolonged Gold mounting medium (Invitrogen). Images were acquired with a Zeiss LSM 780 microscope using a 40× or 63× oil immersion lens and processed in ImageJ and CellProfiler.
To visualize PFKFB3, RPA32, RAD51, BRCA1, 53BP1, and RRM2 IRIF, the cells were first washed with PBS and then incubated for 5 min at room temperature with cytoskeleton (CSK) buffer containing 10 mM PIPES pH 7.0 (Sigma Aldrich), 100 mM NaCl (EMD Millipore), 300 mM sucrose (Sigma Aldrich), 3 mM MgCl2 (Sigma Aldrich), and 0.7% Triton X-100 (Sigma Aldrich). After these treatments, the cells were washed once again with PBS and then fixed in 4% PFA with 2% sucrose.

For `O=C(OCCO)c1ccc(NS(=O)(=O)c2cccc(-c3cc(F)ccc3O)c2)cc1O` [KAN0438757, 2-Hydroxyethyl-4-{[(5′-fluoro-2′-hydroxybiphenyl-3-yl)sulfonyl]amino}-2-hydroxybenzoate], the “IR-induced co-localization of PFKFB3 and RRM2 (in words)” value was “disrupted”.
